The values below come from patent US20220220106A1, “QUINOLINE COMPOUNDS AND PHARMACEUTICAL COMPOSITIONS AND USES THEREOF” (Academy of Military Medical Sciences, priority 2019, published 2022).

As usually defined, the Tmax is the time at which the peak concentration occurs. The term AUC denotes concentration integrated over time. Broadly, the Cmax is the maximum level reached in the sampled fluid or tissue.

A short description of this data set: In vivo drug metabolism (pharmacokinetics) in mice, iv and po. Set-up: species or system C57 male mice. The note with it: for apparent volume of distribution (Vss), in words / clearance rate (CL), in words / area under curve (AUC) through injection administration route, in words: iv; for Tmax / AUC / clearance / half-life / Vd / C0 / Cmax: male, plasma; for Tmax: C57, mouse, 10 mg/kg; for AUC / clearance / half-life / Vd / C0 / Cmax: mouse; for clearance: read-out: CL iv; for Vd: read-out: Vss iv; for F po: oral bioavailability, po 10 mg/kg vs iv 1 mg/kg. Here is the method:
Experimental animals: C57 male mice (purchased from Beijing Vital River Laboratory Animal Technology Co., Ltd.), bred for 6-8 weeks and weighing 20-30 g, 3 mice in each group of iv/po groups, a total of 6 groups.
Preparation of Sample Solutions:
(1) Preparation of sample solution (1 mg/kg, 5 mL/kg) for injection (iv): 1 mg of the sample to be tested was dissolved in 0.5 mL DMSO, mixed by a vortex mixer, and treated ultrasonically to obtain a stock solution (2 mg/mL); 0.10 mL of the stock solution (2 mg/mL) was added to a vial, then 0.4 mL of PEG400 and 0.5 mL of water were added, and mixed by a vortex shaker, treated ultrasonically to obtain a sample solution with a concentration of 0.2 mg/mL.
(2) Preparation of sample solution (10 mg/kg, 10 mL/kg) for oral administration (po): 1 mg of the sample to be tested was dissolved in 1 mL of “0.5% CMC/0.1% Tween-80 aqueous solution”, mixed by a vortex mixer, and treated ultrasonically to obtain a suspension of the sample to be tested with a concentration of 1 mg/mL.
Liquid Chromatography Method:
(1) Chromatographic column: Waters XSELECT CSH C18, 2.5 μm 2.1×50 mm chromatographic column.
(2) Mobile phase: Phase A: 5% acetonitrile in aqueous solution (0.1% formic acid); Phase B: 95% acetonitrile in aqueous solution (0.1% formic acid).
(3) Flow rate: 0.6 mL/min.
(4) Sampling volume: 20 μL.
For each compound, po group and iv group were set for administration. All experimental animals were fasted overnight before administration, and all administration was performed at room temperature.
Sampling time: for iv group, sampling was performed at 0.083, 0.25, 0.5, 1, 2, 4, 8 and 24 hours after injection administration (iv); for po group, sample was performed at 0.25, 0.5, 1, 2, 4, 8 and 24 hours after oral administration (po).
(1) At each time point, about 0.03 mL of blood was collected. The blood of each sample was transferred to a plastic microcentrifuge tube containing heparin sodium anticoagulant, mixed well with the anticoagulant, and then cooled on ice and centrifuged.
(2) The blood sample was centrifuged at 4000 rpm for 5 minutes at 4° C. to obtain plasma.
(3) The samples was stored in a refrigerator at −75±15° C. for later test.
Analysis and Identification:
The mixed solution of acetonitrile and water (1:1) was used to dilute the stock solution to prepare a series of working solutions.
3 μL of working solution (5, 10, 20, 50, 100, 500, 1000, 5000, 10000 ng/mL) was added to 30 μL of C57 mouse blank plasma to obtain a standard solution with a concentration of 0.5-1000 ng/mL (0.5, 1, 2, 5, 10, 50, 100, 500, 1000 ng/mL), in total of 33 μL. Four quality control samples of 1 ng/mL, 2 ng/mL, 50 ng/mL and 800 ng/mL were used to calibrate the standard curve.
(2) The quality control samples were prepared on the day of analysis, and the method was the same as the standard solution.
(3) 200 μL of acetonitrile containing internal standard solution was added to 33 μL of standard samples, 33 μL of quality control samples and 33 μL of unknown sample (30 μL of plasma and 3 μL of blank solution) to precipitate protein, respectively. The samples were mixed by a vortex mixer for 30 seconds and mixed well. The precipitated samples were centrifuged for 15 minutes at 4° C. and 4000 rpm.
(4) The supernatant was pipetted quantitatively and diluted by 3 times with water, then the diluted supernatant was loaded and quantitatively analyzed by liquid chromatography-mass spectrometry technology.
(5) Detection data were obtained, and pharmacokinetic parameters such as T1/2, Cmax, AUC, AUC, CL, Vss, F were calculated.

Setting [1] is: po, po 10 mg/kg, read-out: Tmax po.
Where [2] appears, read: po, po, read-out: peak time Tmax.
Where [3] appears, read: iv 1 mg/kg, C57 mice, read-out: AUC iv.
Setting [4] is: iv 1 mg/kg, C57 mice, read-out: T1/2 iv (converted).
Setting [5] is: po 10 mg/kg, C57 mice, read-out: AUC po.
The mark [6] stands for this setting: po 10 mg/kg, C57 mice, read-out: T1/2 po (converted).

Like-named read-outs stand apart in the source and are kept apart here.

Regarding `CCC(=O)Nc1ccc(-c2ccc3ncc4ccc(=O)n(-c5cccc(C(F)(F)F)c5)c4c3c2)cn1` [HTL-6-45, 9-[3-(6-propionylamino)pyridyl]-2-oxo-1-[3-(trifluoromethyl)phenyl]-1,2-dihydrobenzo[h][1,6]naphthyridine], for the setting “C57 mice”, the “apparent volume of distribution (Vss), in words” value (“apparent volume of distribution” for short) is on record as “slightly higher”; the “clearance rate (CL), in words” value is on record as “relatively higher clearance rate”; the F po is reported as 3.89%. For the same molecule, the Tmax under setting [1] was determined as 15 min. Also, the Tmax under setting [2] came to 15 min. For the same molecule, the AUC under setting [3] was found to be 95 ng·h/mL. Where the note is “iv 1 mg/kg, C57 mice”, the clearance stood at 176 mL/min/kg, the Vd came to 3.25 L/kg and the C0 came out at 398 ng/mL. Further, the half-life under setting [4] is 19.4 min. Under setting [5], the AUC was 35.4 ng·h/mL. Besides, under setting [6], the half-life was 50.4 min. The same molecule displayed a Cmax (po 10 mg/kg, C57 mice) of 42.9 ng/mL.

With `O=c1ccc2cnc3ccc(-c4cccnc4F)cc3c2n1-c1cccc(C(F)(F)F)c1` [HTL-6-48, 9-[3-(2-fluoro)pyridyl]-2-oxo-1-[3-(trifluoromethyl)phenyl]-1,2-dihydrobenzo [h][1,6]naphthyridine], for the setting “C57 mice”, the “highest blood concentration C0/Cmax, in words” value was “relatively high”; the “apparent volume of distribution” value is on record as “lower”; the “area under curve (AUC) through injection administration route, in words” value (from here on “area under curve”) was “relatively high”. Besides, the Tmax under setting [1] turned out to be 15 min. For the same molecule, under setting [2], the Tmax turned out to be 15 min. Moreover, under setting [3], the AUC worked out at 651 ng·h/mL. Under “iv 1 mg/kg, C57 mice”, the clearance was determined as 25.6 mL/min/kg, the Vd is 1.59 L/kg and the C0 was 651 ng/mL. In addition, the half-life under setting [4] was 50.4 min. Under setting [5], the area under the curve (AUC) was determined as 1330 ng·h/mL. Moreover, the half-life under setting [6] is 59.4 min. In addition, the highest level (po 10 mg/kg, C57 mice) (Cmax) was 1290 ng/mL.

For `O=c1ccc2cnc3ccc(-c4ccc(F)nc4)cc3c2n1-c1cccc(C(F)(F)F)c1` [HTL-7-01, 9-[3-(6-fluoro)pyridyl]-2-oxo-1-[3-(trifluoromethyl)phenyl]-1,2-dihydrobenzo[h][1,6]naphthyridine], for the setting “C57 mice”, the “apparent volume of distribution” value is “lower”; the “area under curve” value is given as “relatively high”; the F po amounted to 12.2%. For the same molecule, under setting [1], the Tmax amounted to 30 min. Besides, the Tmax under setting [2] was greater than 30 min. Besides, under setting [3], the AUC came to 592 ng·h/mL. Further, where the note is “iv 1 mg/kg, C57 mice”, the clearance turned out to be 27.8 mL/min/kg, the Vd was found to be 2.29 L/kg and the C0 amounted to 574 ng/mL. Besides, under setting [4], the half-life was 63 min. Moreover, the AUC under setting [5] turned out to be 699 ng·h/mL. The half-life under setting [6] is 121 min. Also, for the setting “po 10 mg/kg, C57 mice”, the peak level (Cmax) was 298 ng/mL. The “AUC through oral administration, in words” value (po, C57 mice) is “lower”.

As for `COc1ccc(-c2ccc3ncc4ccc(=O)n(-c5cccc(C(F)(F)F)c5)c4c3c2)cn1` [HTL-7-03, 9-[3-(6-methoxy)pyridyl]-2-oxo-1-[3-(trifluoromethyl)phenyl]-1,2-dihydrobenzo[h][1,6]naphthyridine], where the note is “C57 mice”, the “half-life T1/2, in words” value was “relatively longer half-life”; the “apparent volume of distribution” value is given as “slightly higher”; the “area under curve” value is recorded as “relatively high”. Further, the Tmax under setting [1] was 40 min. Further, under setting [2], the Tmax is greater than 30 min. In addition, the exposure (AUC) under setting [3] came out at 668 ng·h/mL. In addition, under “iv 1 mg/kg, C57 mice”, the clearance stood at 24.1 mL/min/kg, the Vd stood at 3.24 L/kg and the C0 was determined as 596 ng/mL. Moreover, the half-life under setting [4] was 110 min. Besides, the AUC under setting [5] was determined as 1640 ng·h/mL. Moreover, the half-life under setting [6] was 74.4 min. Besides, the Cmax (po 10 mg/kg, C57 mice) is 565 ng/mL.

`CN1CCN(c2ccc(-c3ccc4ncc5ccc(=O)n(-c6cccc(C(F)(F)F)c6)c5c4c3)cn2)CC1` [HTL-7-17, 9-{3-[6-(4-methylpiperazin-1-yl)pyridyl]}-2-oxo-1-[3-(trifluoromethyl)phenyl]-1,2-dihydrobenzo[h][1,6]naphthyridine]: for the setting “C57 mice”, the “apparent volume of distribution” value is reported as “slightly higher” and the “clearance rate (CL), in words” value is reported as “relatively higher clearance rate”. Moreover, the Tmax under setting [1] is 20 min. For the same molecule, the Tmax under setting [2] was 19.8 min. In addition, the AUC under setting [3] was found to be 168 ng·h/mL. Moreover, under “iv 1 mg/kg, C57 mice”, the clearance stood at 99 mL/min/kg, the Vd stood at 3.59 L/kg and the C0 is 364 ng/mL. The half-life under setting [4] is 43.1 min. Further, under setting [5], the AUC turned out to be 357 ng·h/mL. Further, under setting [6], the half-life is 94.8 min. The molecule further gave a Cmax (po 10 mg/kg, C57 mice) of 144 ng/mL.
